Measurements taken from patent EP0904128B1, “COMPOSITION AND SYSTEM FOR IONTOPHORETIC TRANSDERMAL DELIVERY OF DRUGS” (priority 1996, dated 1997).
Read-outs that look alike come from different tables or passages of the source.

Assays:
[1] = experiment 3; for salicylate release / permeation through epidermis: epidermis between fiber disc and phosphate buffer pH 7.4 (6 mM, µ=0.2), zero-order after lag time
Method: Drug release in vitro from the fiber discs at 37 °C was tested in Franz diffusion cells (Crown Glass Co. Inc., Somerville, NJ) (Fig. 3). […] The fiber discs 10 were placed in the diffusion cells so that one side of the anionic ion-exchange fiber was exposed to the dissolution medium. The dissolution medium was pH 7.4 phosphate buffer saline (PBS, 143 mM, µ=0.15 (µ = ionic strength)) in experiment 1 and pH 7.4 phosphate buffer (6 mM, µ=0.2) in experiments 2 and 3. To assess the effect of the skin on drug release (experiment 3), a piece of epidermis 13 was placed between the fiber disc and buffer solution. At fixed times, samples of 250 µl were withdrawn and the drug concentration in the samples were determined by using HPLC (Beckman System Gold, Beckman Instrument, San Ramon, CA) with a Supelcosil LC-18-DB column (5 µm, 150 x 4.6 mm) (Supelco Inc., Rohm and Haab Co., Bellefonte, PA). The mobile phase was a binary mixture of methanol (40 % v/v) and pH 7.0 phosphate buffer (60 %). The detection wavelenght was 298 nm, and the flow rate of 1.0 ml/min, the retention time was 2.6 min.

[2] = pH 7.0 phosphate buffer (200 mM) containing 6.27 g/l NaCl; donor solution 50 µg/ml; Hirvonen 1994; cited from earlier work
[3] = human, pH 7.4
Method: Electrodes for iontophoresis were prepared from silver wire and silver chloride (Aldrich-Chemie, Steinheim, Germany). Direct current (0,5 mA/cm^2) during iontophoresis was delivered by HP 6181C DC current source (Hewlett-Packard, Cupertino, CA) from the electrodes to the diffusion chambers via salt bridges. Salt bridges were prepared by injecting 1 M NaCl-gel (3 % agar) inside plastic tubing (diameter 4 mm, length ca. 15 cm). […] Transdermal permeation of ions increase most during iontophoresis due to electrostatic repulsion. […] Because Ag/AgCl-electrodes cause precipitation of phosphates, we used HEPES-buffer at pH 7,4 during the iontophoresis experiments. […] The chambers were connected in series as constant DC-current was used.

[4] = for Tacrine permeation Flux: Average ± standard deviation
[5] = in vivo; cited from earlier work

Structure (SMILES) | salicylate release / permeation through epidermis [1] | salicylate release / permeation through epidermis ([1]; listed as Salicylate) [µg/h] | Lag time before steady state release ([1]; with skin) | in vitro permeability of anionic salicylate through skin [2] | iontophoretic delivery compared to passive permeation from the ion-exchange fiber ([3]; 3.5 %) | lag-time of drug permeation ([3]; 5 %) | Tacrine permeation Flux ([4]; Passive permeation (3.5 % in ion-exchange fiber)) [µg/ h per cm^2] | Tacrine permeation Flux ([4]; Passive permeation (5 % solution)) [µg/ h per cm^2] | Lag-time of permeation ([4]; human, 5 %, pH 7) | Delivery of tacrine across the skin from the cationic ion-exchange fiber ([4]; passive, 3,5 % tacrine in cationic ion-exchange fiber) | Steady-state flux of tacrine across human skin in vitro ([4]; passive, 5 % solution, pH 7,4) | Clearance CL [5] | elimination half-life T1/2 [5] | peroral bioavailability [5]
O=C([O-])c1ccccc1O.[Na+] [salicylate, Sodium salicylate] | about 0.08 µg/h | 0.08 | about 2 h | about 0.34 µg/cm^2/h |  |  |  |  |  |  |  |  |  | 
Nc1c2c(nc3ccccc13)CCCC2 [tacrine, 9-amino-1,2,3,4-tetrahydroacridine] |  |  |  |  | > 10 000 -fold | about 0,5 h | 0.003±0.0006 | 2.95±0.66 | ca. 24 h | about 0,003 g/h per cm^2 | 2,95 g/h per cm^2 | about 150 l/h | 1,4 - 3,6 h | 5 - 35%
